{
  "source": "patent US7407670B2",
  "about": "“Solid dispersions comprising two different polymer matrixes” (Janssen Pharmaceutica, N.V., priority 2002, dated 2008)",
  "assay": "Solubility of itraconazole in polymer solutions at 298K",
  "assay_type": "physicochemical",
  "settings": "eudragit E100 solution versus PVPVA64 solution",
  "text": "FIG. 10: Solubility of itraconazole in different concentration of polymer solutions at 298K in eudragit E100 (open bars) and PVPVA64 (closed bars).",
  "data": [
    {"compound": "CCC(C)n1ncn(-c2ccc(N3CCN(c4ccc(OCC5COC(Cn6cncn6)(c6ccc(Cl)cc6Cl)O5)cc4)CC3)cc2)c1=O", "note": "(stereo not shown) [itraconazole, Itraconazole]", "values": [
      {"measurement": "solubility in polymer solution (comparison in words)", "result": "much higher in eudragit E100 solution"}
    ]}
  ]
}
